The source of these data is patent US20150335662A1, “METHODS FOR DIAGNOSING AND TREATING SEPSIS” (priority 2013, published 2015).

This series has as its system Cecum Ligation-Puncture (CLP) induced sepsis. The series can be described thus: Cecum Ligation-Puncture (CLP) induced sepsis in rats, daily calcitriol dosing, survival and body weight. The series is classed as in vivo, adult Wistar rats. Particulars: CLP septic rats. Here is the method:
Then, the optimal dosing of calcitriol as an example of an agent for treatment of sepsis according to the present invention was determined. Anesthesia was induced in adult Wistar rats with 5% isoflurane followed by maintenance on 2.5% isoflurane. The cecum was exteriorized via a small abdominal incision, and was then ligated approximately 3.5 […] distal to the cecum tip. The ligated cecum was punctured twice with a 26-gauge needle and was gently squeezed to extrude some stool. The cecum was replaced in the abdomen and the incision closed with 4-0 silk sutures in two layers, abdominal wall and skin. This Cecum Ligation-Puncture (CLP) procedure induced sepsis in the animals. Sham-operated rats were treated identically, except that the cecum was neither ligated nor punctured.
The rats then received either standard therapy (normal saline (30 ml/kg body weight) given once immediately after the CLP procedure to compensate the third-space fluid loss and imipenem (25 mg/kg body weight) daily subcutaneously) or therapy according to the present invention (calcitriol at 25 ng, 100 ng or 400 ng in peanut oil subcutaneously daily). The rats were monitored daily for body weight and survival.
Referring now to FIG. 9 and FIG. 10, there are shown, respectively, a graph of percent survival as a function of time after induction of sepsis in rats showing the effect of various doses of calcitriol (none, triangles; 25 ng daily, line; 100 ng daily, circles; and 400 ng daily, squares) (FIG. 9); and a graph of body weight in grams as a function of time after induction of sepsis in rats showing the effect of various doses of calcitriol (none, triangles; 25 ng daily, line; 100 ng daily, circles; and 400 ng daily, squares) (FIG. 10).

Turning to `C=C1C(=CC=C2CCC[C@]3(C)[C@@H]2CC[C@@H]3[C@H](C)CCCC(C)(C)O)C[C@@H](O)C[C@@H]1O` [calcitriol, (1R,3S)-5-[2-[(1R,3aR,7aS)-1-[(2R)-6-hydroxy-6-methyl-heptan-2-yl]-7a-methyl-2,3,3a,5,6,7-hexahydro-1H-inden-4-ylidene]ethylidene]-4-methylidene-cyclohexane-1,3-diol], where the note is “400 ng daily subcutaneously”, the signs of hypercalcemia result was “typical signs of hypercalcemia”. The effect on survival result (400 ng daily subcutaneously, FIG. 9) is “negatively affected”. For the same molecule, under “400 ng daily subcutaneously, FIG. 10”, the “effect on body weight” value was “negatively affected”. Further, for the setting “calcitriol 25, 100 or 400 ng in peanut oil subcutaneously daily, FIG. 9”, the “optimal dose for survival” value amounted to 100 ng daily. In addition, under “calcitriol 25, 100 or 400 ng in peanut oil subcutaneously daily, FIG. 10”, the “optimal dose for body weight” value is recorded as 100 ng daily.
